Assay results reported in EP0369657A2, “Chromogenic substrate for esterase and immunoassay using same” (Becton Dickinson and Company, priority 1988, dated 1990).

Test system: rabbit liver esterase (RLE)
Assay: Stopping of DCIPB color formation in the dual enzyme assay for Influenza A
Type: biochemical
Conditions: added after five minute incubation with DCIPB; TFAP as 40 µL of 1 mM in 50 mM Tris, pH 7.5; read at 620 nm
Procedure: A mixture of the blocked inhibitor from Example II (1 x 10⁻⁴M) and rabbit liver esterase (RLE) (5 x 10⁻⁹M) in 50 mM diethanolamine (DEOA), pH 9.0 was added to each well (150 µL), and incubated at room temperature for 20 minutes.
A solution of DCIPB (0.35 mM in 50 mM Tris, pH 7.5, containing 20% methanol) was added to each well (150 µL). After a five minute incubation, 40 µL of a solution of 1 mM 1,1,1-trifluoroacetophenone (TFAP) in 50 mM Tris, pH 7.5, was added to stop the reaction.
The same effect was achieved by the addition of free inhibitor (product B from Example II). After "stopping," test wells having a high concentration of antigen remained colorless for several hours.

Structure (SMILES)	effect on color formation process
O=C(c1ccccc1)C(F)(F)F [1,1,1-trifluoroacetophenone (TFAP), 1,1,1-trifluoroacetophenone]	stopped the color formation process
O=C(CCc1ccc(O)cc1)C(F)(F)F [compound 3, 1,1,1-trifluoro-4-(4-hydroxyphenyl)-2-butanone]	same effect
